The results in this text go back to paper PMC12247024, “PCFT‐Independent Cellular Uptake of Cyclic Cell‐Penetrating Peptide‐Conjugated Folic Acid” (Chembiochem, 2025).

Series [1] is described as follows: RP‐HPLC ACN elution (relative hydrophobicity). The series is classed as physicochemical. As to conditions: PFP column, water/acetonitrile gradient 5%–95% with 0.1% TFA, detection 220 nm, used by the paper as measure of overall hydrophobicity. The text has this: Peptides were purified using a reverse‐phase high‐performance liquid chromatography (RP‐HPLC) system, Agilent Technologies (Santa Clara, CA, USA), with water and acetonitrile gradient (5%–95%), containing 0.1% TFA as the mobile phase. Pentafluorophenyl (PFP) column was used as the stationary phase, and samples were detected at the absorbance of 220 nm. Electronic spray ionization‐mass spectrometry (ESI‐MS) was used to determine the molecular weights of the synthesized peptides. Mass spectrometry data were provided by the AIMS Mass Spectrometry Laboratory at the University of Toronto. The peptide conjugates were characterized by electrospray ionization mass spectrometry (ESI‐MS) with agreement between the predicted and experimental molecular weights (Table 1). The peptides, cTAT‐folic acid conjugates, and fluorescein‐labeled conjugates were assessed for the peptide purity by analytical RP‐HPLC system (Figure S6–S11, Supporting Information). The broader peaks, peak splitting, and lower signaling intensity of cyclic peptide and their conjugates in the chromatograms are due to the limited interactions of the peptides with the HPLC columns. The appearance of double peaks for TAMRA conjugated linear and cyclic peptides and of folic acid is likely due to the use of 5‐ and 6‐TAMRA isomer, since isomeric dye conjugated molecules tend to show multiple peaks in RP‐HPLC.^[ [23] ^] […] The bioconjugation of folic acid with cTAT increased the overall hydrophobicity of the cyclic peptide (%ACN elution change from 24% to 34% for cTAT and cTAT‐folic acid respectively), and the ACN elution profile of the conjugates was similar to that of folic acid (Table 1).

Series [2] relates to DHFR activity in Caco‐2 cell lysates. Kind of series: DHFR assay in lysates of treated cells. The class given is cell-based. The settings on record: for DHFR activity in cell lysates: Caco‐2 treated at acidic pH for 4 h, NADPH absorbance 340 nm, mean, n = 3. Here is the method:
DHFR kit was purchased from Millipore Sigma and was used to analyze DHFR activity, according to manufacturer's protocol. DHFR enzyme catalyzes the reduction of dihydrofolic acid to tetrahydrofolic acid, which is reversible and NADPH‐dependent reaction.
Dihydrofolic acid + NADPH + H^+ ↔ Tetrahydrofolic acid + NADP^+
Briefly, 20 μM NADPH, 15 μM DHF, 5 μM DHFR, 50 mM Tris (pH 7.5), and 2 mg mL^−1 of cell lysates from Caco‐2 samples treated with 4.5 μM of cTAT‐folic acid conjugates and 20 μM folic acid were added to obtain final volume of 100 μL. DHFR activity at room temperature was monitored by continuously measuring the drop in NADPH concentration, by taking the absorbance at 340 nm for up to 2.5 min.
Figure 3 DHFR activity in units/mg of protein in Caco‐2 cells lysates, performed 4‐h post‐treatment. A) Cotreatment of cells with folic acid, cTAT‐folic acid conjugates, and myricetin and B) treatment of cell lysates with methotrexate (MTX). The values are mean ± standard error for n = 3, *p < 0.01. Units per mg indicate DHFR activity per mg of protein in the sample, where total protein content (mg) in each sample was measured by BCA assay.

The subject of series [3] is IL‐1β and IFN‐β production in HD‐11 cells. As to the kind of experiment: Cytokine release (ELISA) upon IBDV infection. The class given is cell-based, chicken. The settings on record: HD‐11, IBDV at TCID50 for 1 h, then folic acid 20 μM or cTAT‐folic acid 4.5 μM, n = 3, p < 0.01. Here is the method:
A modified live IBDV vaccine, UNIVAX‐BDmild strain (ST12) from MSD Animal Health, was reconstituted with10 mL of PBS, and 500 μL aliquots were stored at −80 °C, according to previously reported procedures.^[ [25] ^] An aliquot of the vaccine was added to a tissue culture‐treated T‐25 flask containing confluent HD‐11 cells, and the flask was incubated at 37 °C with 5% CO2 for 1 h to reproduce the virus and to obtain multiplicity of infection (MOI = 1). Following this, 5 mL of media was added, and the cells were incubated for 72 h under the same conditions. After that, the supernatant was extracted, centrifuged for 10 min at 1000 × g, and 500 μL aliquots were taken out and kept at −80 °C to evaluate 50% tissue culture infective‐dose assay (TCID50) in HD‐11. […] The plate was incubated at 37 °C with 5% CO2 for 4 h, and TCID50 was evaluated by MTS assay, as described above.
HD‐11 and RAW 264.7 cells were cultured in folic acid free RPMI containing 10% FBS and 1% penicillin–[…] solution. […] After 24 h of incubation, cell culture supernatant were collected, and production of chicken IL‐1β and IFN‐β cytokines in HD‐11 was evaluated in triplicate by ELISA kits purchased from Genorise Scientific Inc. (Berwyn, PA 19 312, United States). The production of mouse IL‐1β, TNF‐α and IL‐10 was quantified in RAW 264.7 cells in triplicates by ELISA assay. […]
On the technique in general: In an ELISA, binding on a coated surface is turned into a signal by an enzyme label.

In series [4] the test system is IL‐1β, TNF‐α and IL‐10 production in RAW 264.7 cells. Kind of series: Cytokine release (ELISA) upon LPS challenge. The class given is cell-based, mouse. As to conditions: RAW264.7, LPS for 1 h, then folic acid 20 μM or cTAT‐folic acid 4.5 μM, n = 3, p < 0.01. Here is the method: HD‐11 and RAW 264.7 cells were cultured in folic acid free RPMI containing 10% FBS and 1% penicillin–[…] solution. Cytokine release profile from HD‐11 chicken macrophage cells and RAW 264.7 […] macrophage cells was studied by treating cells in growth phase (≈70% confluency) with 1 μg mL^−1 LPS or with IBDV at TCID50 for 1 h, followed by the addition of folic acid (20 μM) and cTAT‐folic acid conjugates (4.5 μM) in serum‐free, folic acid‐negative RPMI‐1640 medium. After 24 h of incubation, cell culture supernatant were collected, and production of chicken IL‐1β and IFN‐β cytokines in HD‐11 was evaluated in triplicate by ELISA kits purchased from Genorise Scientific Inc. (Berwyn, PA 19 312, United States). The production of mouse IL‐1β, TNF‐α and IL‐10 was quantified in RAW 264.7 cells in triplicates by ELISA assay.
Figure 4 ELISA assay showing A) cytokine expression in HD‐11 cells upon IBDV infection for 1 h, followed by the treatment with folic acid (20 μM) and cTAT‐folic acid conjugates (4.5 μM), and B) cytokine expression (IL‐1β, IL‐10, and TNF‐α) upon LPS (0.5 μg mL^−1) challenge of RAW 264.7 for 1 h, followed by the treatment with folic acid (20 μM) and cTAT‐folic acid conjugates (4.5 μM) for 4 h. The values are mean ± standard error for n = 3, *p < 0.01 and **p < 0.05.

Another series deals with T1, trypsin.
T1 construct: purchased Sigma Aldrich / VWR Life Sciences
As to the kind of experiment: Trypsin treatment, intact peptide by HPLC. The class given is in vitro ADME. As to conditions: isolated enzyme trypsin. The text has this: (§1) Compared with the linear peptides, cyclic analogs are well documented for enhanced physiological stability and resistance to enzymatic degradation.^[ [20], [21], [22] ^]

Series [5] concerns Caco‐2 cells. Kind of series: Cellular uptake of fluorophore‐labeled linear and cyclic peptides. The series is classed as cell-based. The settings on record: Caco‐2, fluorophore‐labeled peptides, fluorescence microscopy and cell lysates by microplate reader. How it is done:
(§2) Caco‐2 and HD‐11 cells were then seeded in six‐well plates at a density of 2.0 × 10^5 cells per well, in 2 mL of RPMI no folic acid medium. After overnight incubation, the cells were further incubated for 4 h with fluorescent folic acid and with cTAT‐folic acid‐FL conjugates (4.5 μM) at 37 °C in a humidified atmosphere containing 5% CO2. The cells were washed with PBS, and relative fluorescence of the samples was analyzed with the microplate reader using excitation wavelength of 490 nm and emission wavelength of 520 nm.
as §1

The next series has as its system HD‐11 cells. The description is as above. The class given is cell-based, chicken. The settings on record: HD‐11, fluorophore‐labeled peptides, fluorescence microscopy and cell lysates by microplate reader. Here is the method:
as §2, §1

Series [6] in a line: Trypsin treatment, intact peptide by HPLC. The series is classed as in vitro ADME. The settings on record: isolated enzyme trypsin, trypsin, HPLC chromatogram analysis, read-out: intact peptide after trypsin treatment.
Source text: as §1

Series [7] has as its system PCFT expression in Caco‐2 cells. Kind of series: WB analysis of PCFT/GAPDH expression. As to conditions: Caco‐2, 50 μM, p < 0.01. The series is classed as cell-based. How it is done:
Caco‐2 cells were seeded in six well culture plate at 1 × 10^6 cells per well in RPMI 1640 folic acid negative medium for 24 h followed by the addition of folic acid, cTAT, and cTAT‐folic acid conjugates (0.1–200 μM) for 4 h. 0.5 mL of pre‐chilled RIPA lysis buffer at 4 °C was added to Caco‐2 cells in six‐well plate. The cell samples were scraped and centrifuged at 14 000 × g to remove cellular debris. The amount of protein in cell lysate was measured by using BCA assay. The protein samples (25 μg) were loaded directly onto 12% Tris·HCl polyacrylamide gels using 6X SDS loading buffer (1:1) containing DTT, and gel was run for 1 h at 110 V. After SDS‐PAGE, proteins were transferred to nitrocellulose membrane for 80 min at 110 V (Bio‐rad, Hercules, California, USA). […] Figure 2 PCFT/GAPDH expression in Caco‐2 cells was measured by the WBs as a function of concentration of, A) folic acid, B) cTAT‐folic acid conjugates, and C) comparison of cTAT‐folic acid conjugates (4.5 μM) with unconjugated cTAT + folic acid (4.5 μM).The experiments were replicated twice in triplicates (n = 3) and upon 4 h post‐treatment. […]

Series [8] deals with Caco‐2 cells. As to the kind of experiment: Cellular uptake of fluorescein‐labeled folic acid and conjugates. The class given is cell-based. The settings on record: Caco‐2, 4.5 μM. Here is the method: as §2
The cellular uptake of fluorophore‐labeled folic acid (folic acid‐FL) and cTAT‐folic acid conjugates (cTAT‐folic acid‐FL) was studied at 4.5 μM concentration in Caco‐2 cells, at the physiological and acidic pH.
Figure 1 Cellular uptake of fluorescein‐labeled folic acid and cTAT‐folic acid conjugates (4.5 μM) in Caco‐2 cells in the presence and absence of inhibitors at A) acidic and B) physiological pH. C) WB analysis of PCFT/GAPDH expression in Caco‐2 cells in the presence of 50 μM myricetin. The experiments were replicated in triplicates (n = 3). The values are mean ± standard error for n = 3, *p < 0.01.

Where [9] appears, read: folic acid 20 μM, cTAT‐folic acid 4.5 μM.

Positions of bridges follow the written chain, without caps; N, C: chain ends. Residues, ends and D or L forms follow the SMILES beside them.

Take `Nc1nc(=O)c2nc(CNc3ccc(C(=O)N[C@@H](CCC(=O)O)C(=O)O)cc3)cnc2[nH]1` [Folic acid]: in series [1], the “ACN elution [%]” value worked out at 34.06%. Besides, the “DHFR activity in cell lysates, cotreatment with myricetin” value in [2] (Caco‐2, acidic pH, 4 h, folic acid 20 μM, cTAT‐folic acid 4.5 μM, plus myricetin) was 10 units mg^−1 of protein. The “DHFR activity in MTX‐treated cell lysates” value in series [2] (Caco‐2 lysates plus methotrexate 100 μM) was “negligible DHFR activity”. Also, in series [2] (setting [9]), the “DHFR activity in cell lysates” value is 59 units mg^−1 of protein. Further, the “production of proinflammatory cytokines in challenged macrophages” value in series [3] and in series [4] was “reduced the production of proinflammatory cytokines” each time.
With `N=C(N)NCCC[C@@H]1NC(=O)[C@H](CCCCN)NC(=O)[C@H](CCCCN)NC(=O)[C@H](CCCNC(=N)N)NC(=O)[C@H](CCCNC(=N)N)NC(=O)[C@H](CCC(N)=O)NC(=O)[C@H](CCCNC(=N)N)NC(=O)[C@H](CCCNC(=N)N)NC(=O)[C@H](CCCNC(=N)N)NC(=O)[C@@H](N)CCCCNC(=O)CC[C@@H](C(N)=O)NC(=O)[C@H](Cc2ccc(O)cc2)NC(=O)CNC1=O` [cTAT] (H-KRRRQRRKKRGYE-NH2; lactam 1-13), the “ACN elution [%]” value in series [1] was determined as 24%. In the series with trypsin, this compound showed a remaining at 1 h of 49% and a remaining at 20 h of 27%. The “cellular uptake, cyclic versus linear peptide” value in the series with Caco‐2 cells [5] is listed as “significantly higher cellular uptake”. Further, the “cellular uptake, cyclic versus linear peptide” value with HD‐11 cells is “significantly higher cellular uptake”. In addition, the “DHFR activity in cell lysates” value in [2] (setting [9]) was “no significant DHFR activity”.
Turning to `N=C(N)NCCC[C@H](NC(=O)[C@H](CCCCN)NC(=O)[C@H](CCCCN)NC(=O)[C@H](CCCNC(=N)N)NC(=O)[C@H](CCCNC(=N)N)NC(=O)[C@H](CCC(N)=O)NC(=O)[C@H](CCCNC(=N)N)NC(=O)[C@H](CCCNC(=N)N)NC(=O)[C@H](CCCNC(=N)N)NC(=O)[C@@H](N)CCCCN)C(=O)NCC(=O)N[C@@H](Cc1ccc(O)cc1)C(=O)N[C@@H](CCC(=O)O)C(N)=O` [linear peptide] (H-KRRRQRRKKRGYE-NH2; N-terminus assumed), the remaining at 1 h in series [6] (1 h incubation) was 36%. The remaining at 20 h in series [6] (20 h post‐treatment) is 15%. For the same compound, the “cellular uptake, cyclic versus linear peptide” value in the series with Caco‐2 cells [5] and in the series with HD‐11 cells was “lower uptake at all studied time points” each time.
Regarding `O=c1c(O)c(-c2cc(O)c(O)c(O)c2)oc2cc(O)cc(O)c12` [myricetin], the “PCFT expression compared with the untreated cells” value in series [7] is recorded as “significantly downregulated”.
For “CONH2‐c[EYGRKKRRQRRRK]C(FL)‐NH‐folic acid (sidechain bridge or staple) [cTAT‐folic acid‐FL, fluorescein‐labeled cTAT‐folic acid conjugate, fluorescein on an inserted Cys]”, the “ACN elution [%]” value in [1] is on record as 29.86%. For the same compound, in the series with Caco‐2 cells [8], the “difference in cellular uptake between acidic and physiological pH” value is “no significant difference”. For the same compound, the “cellular uptake upon ethanol treatment of the cells” value in the series with Caco‐2 cells [8] (physiological and acidic pH) was “only partially inhibited”.
